Our source for the IC50 values is ChEMBL document CHEMBL1136296, “3-cyanoindole-based inhibitors of inosine monophosphate dehydrogenase: synthesis and initial structure-activity relationships” (Bioorg Med Chem Lett, 2003).

For assay [1], the target named is Inosine-5'-monophosphate dehydrogenase 2 (Homo sapiens, UniProt P12268). In words: Inhibitory activity tested against inosine-5'-monophosphate dehydrogenase 2 (IMPDH-II) enzyme.
Assay [2] concerns CCRF-CEM. Nature of the assay: cells. The settings on record: Homo sapiens.
Description: Inhibition of CEM (human leukemia) cell proliferation.

One may read the IC50 as the midpoint of a concentration-inhibition curve. Low values mean inhibition by little substance, high ones a need for much substance. In assay [1], `COc1cc(NC(=O)Nc2cccc(C)c2)ccc1C#N` showed an IC50 of 290 nM.
On the same count and under the same terms, for `CC(=O)OCC(=O)N(C)c1ccccc1-c1cnc(Nc2ccc3c(C#N)cn(C)c3c2)o1` the value was 266 nM.
For `COc1cc(Nc2ncc(-c3ccccc3)o2)ccc1C#N`, inhibition in assay [1] was half-maximal at 400 nM (IC50).
Take `CN(C)CCOC(=O)NCc1cccc(-c2cnc(Nc3ccc4c(C#N)cn(C)c4c3)o2)c1`: the half-maximal inhibitory concentration (IC50) in assay [1] is 210 nM; in assay [2], 1.4 µM.
Take `Cn1cc(C#N)c2ccc(Nc3ncc(-c4cccc(CNC(=O)OCCC#N)c4)o3)cc21`: the values for the IC50 in assay [1] and in assay [2] were 240 nM and over 10 µM, respectively.
On to `Cn1cc(C#N)c2ccc(Nc3ncc(-c4ccccc4CNC(=O)OC4CCOC4)o3)cc21` (configuration not stated), for which the IC50 in assay [1] is 420 nM; in assay [2] it was over 10 µM.
Turning to `Cc1cccc(-c2cnc(Nc3ccc4c(C#N)cn(C)c4c3)o2)c1`, the concentration for half-maximal inhibition (IC50) in assay [1] is 490 nM; in assay [2] it was over 10 µM.
As for `Cn1cc(C#N)c2ccc(Nc3ncc(-c4ccc(CN)cc4)o3)cc21`, the results for the IC50 in assay [1] and in assay [2] were 260 nM and 2.8 µM, respectively.
The matching figures for `Cn1cc(C#N)c2ccc(Nc3ncc(-c4cccc(CNC(=O)c5cccc6ccccc56)c4)o3)cc21`: 84 nM and 2.5 µM.
In turn, `Cc1cccc(NC(=O)Nc2ccc3c(C#N)cn(C)c3c2)c1` came in with an IC50 in assay [1] of 670 nM.
Turning to `Cn1cc(C#N)c2ccc(Nc3ncc(-c4ccccc4CNC(=O)OCCC#N)o3)cc21`, the values for the IC50 in assay [1] and in assay [2] were 420 nM and over 10 µM, respectively.
`CC[C@H](CC#N)OC(=O)NCc1cccc(NC(=O)Nc2ccc(C#N)c(OC)c2)c1`: in assay [1], the IC50 was found to be 6 nM.
Consider `Cc1ccccc1-c1cnc(Nc2ccc3c(C#N)cn(C)c3c2)o1`, for which half-maximal inhibition in assay [1] (IC50) was put at 440 nM.
On to `CC(=O)NCc1ccc(-c2cnc(Nc3ccc4c(C#N)cn(C)c4c3)o2)cc1`, for which the IC50 was 94 nM in assay [1] and over 10 µM in assay [2].
With `Cn1cc(C#N)c2ccc(Nc3ncc(-c4ccc(CNC(=O)C(C)(C)C)cc4)o3)cc21`, the IC50 in assay [1] was found to be 180 nM; in assay [2], 4.9 µM.
As to `Cn1cc(C#N)c2ccc(Nc3ncc(-c4cccc(CNC(=O)c5ccc6ccccc6c5)c4)o3)cc21`, the IC50 in assay [1] was 40 nM; in assay [2], 4.4 µM.
For the molecule `Cn1cc(C#N)c2ccc(Nc3ncc(-c4ccc(CNC(=O)c5ccccc5)cc4)o3)cc21`, the figures for the IC50 in assay [1] and in assay [2] were 100 nM and over 10 µM, respectively.
For `Cn1cc(C#N)c2ccc(Nc3ncc(-c4cccc(CN)c4)o3)cc21`, the results for the IC50 in assay [1] and in assay [2] were 180 nM and 3.5 µM, respectively.
For `Cc1ccc(NC(=O)Nc2ccc3c(C#N)cn(C)c3c2)cc1`, inhibition in assay [1] was half-maximal at 230 nM (IC50).
For the molecule `Cn1cc(C#N)c2ccc(Nc3ncc(-c4cccc(NC(=O)c5ccccc5)c4)o3)cc21`, the results for the IC50 in assay [1] and in assay [2] were 200 nM and 3.5 µM, respectively.
Regarding `Cn1cc(C#N)c2ccc(Nc3ncc(-c4ccccc4)o3)cc21`, the IC50 in assay [1] amounted to 33 nM; in assay [2], 8 µM.
`Cc1ccc(-c2cnc(Nc3ccc4c(C#N)cn(C)c4c3)o2)cc1` showed an IC50 in assay [1] of over 550 nM.
`Cn1cc(C#N)c2ccc(NC(=O)Nc3ccccc3)cc21` showed an IC50 in assay [1] of 630 nM.
For the molecule `Cn1cc(C#N)c2ccc(Nc3ncc(-c4ccccc4CN)o3)cc21`, the values for the half-maximal inhibitory concentration (IC50) in assay [1] and in assay [2] were 280 nM and 1.1 µM, respectively.
On to `Cn1cc(C#N)c2ccc(Nc3ncc(-c4cccc(CNC(=O)OC5CCOC5)c4)o3)cc21` (configuration not stated), for which the results for the IC50 in assay [1] and in assay [2] were 260 nM and over 10 µM, respectively.
For the molecule `Cn1cc(C#N)c2ccc(Nc3ncc(-c4cccc(CNC(=O)c5ccccc5)c4)o3)cc21`, the half-inhibitory concentration (IC50) in assay [1] was 130 nM; in assay [2], 5.3 µM.
With `COc1cc(Nc2ncc(-c3ccccc3)o2)ccc1-c1cnco1`, the IC50 in assay [1] turned out to be 16 nM.
The molecule `COc1cc(Nc2ncc(-c3ccccc3N(C)C(=O)CN3CCOCC3)o2)ccc1-c1cnco1` came in with an IC50 in assay [2] of 0.52 µM.
Regarding `COc1cc(NC(=O)Nc2cccc(CNC(=O)O[C@H]3CCOC3)c2)ccc1-c1cnco1` [MERIMEPODIB], the IC50 worked out at 11 nM in assay [1] and 0.49 µM in assay [2].
